Results on one compound are retold here after patent US10744152B2, “Application of Asarum total polysaccharides in preparation of medicine for treating cough” (THE FIRST AFFILIATED HOSPITAL OF GUANGZHOU MEDICAL …, priority 2014, dated 2020).

Assay [1] deals with guinea pig models with cough hypersensitivity. Put plainly: Antitussive effect on guinea pig models with cough hypersensitivity (CS-exposure 14 days, citric acid excitation). Format: in vivo. The following applies: for Antitussive rate: vs model group. As to the method: (1) Calculating the cough frequency within 6 min after citric acid excitation, and calculating the antitussive rate of each administration group by using the formula “the antitussive rate=(Nmodel group−Nadministration group)/Nmodel group×100%”.
(2) Calculating the cough latent period of each administration group within 6 min after citric acid excitation;
Experimental materials are same as those of the Embodiment 5. […] Schmidt var. Mandshuricum (Maxim.) Kitag. into pieces, adding 20 times amount of distilled water to soak the cut roots overnight, extracting decoction from boiling water for 6 hours, filtering the decoction with four layers of gauze, repeatedly decocting filter residues twice, 6 hours each time, combining the filtrates, concentrating the filtrate to 1000 ml, precipitating with 80% of ethanol, centrifuging (4500 r/m, 10 min), and conventionally drying the precipitates (washing the precipitates three times with each of ethanol and ether) to obtain coarse Asarum polysaccharides (Li Jingjing, Study on the Separation, Purification and Immunological Activity of Polysaccharide from Asarum heterotropoides, Journal of Changchun Normal University (Natural Science), 2008, 27(1): 54-58)), a group of the Asarum total polysaccharides extract in the Embodiment 1 (800 mg/kg), and a group of the Asarum total polysaccharide extract in the Embodiment 2 (800 mg/kg). The rest of experimental methods are same as the Embodiment 5.

Assay [2] shares this test system. Put plainly: Airway inflammation indicators in BALF (TCC, classification of cells) of guinea pig models with cough hypersensitivity. Format: in vivo. To be noted: 30 mg/kg, 14 days. From the text: Experimental materials are same as those of the Embodiment 5. […] Schmidt var.
In assay [3] the test system is guinea pig models with acute cough. Put plainly: Acute antitussive effect on cough of guinea pigs induced by citric acid.

Marks after values point to notes of the source that are not given here.

Consider `COc1ccc2c3c1O[C@H]1[C@@H](O)C=C[C@H]4[C@@H](C2)N(C)CC[C@@]341` [Codeine phosphate, codeine phosphate], for which the Cough frequency is listed as 5.7 +/− 1.9*** times in assay [1] (30 mg/kg intragastric once a day 14 days, CS-exposure 14 days, within 6 min after citric acid); 5.7 +/− 1.9*** times in assay [1] (Embodiment 8 comparison of different extracts, 30 mg/kg, 14 days); 8.5 +/− 2.6*** times in assay [3] (30 mg/kg once a day for 3 days, within 6 min after citric acid nebulization). The Cough latent period in assay [1] (30 mg/kg, 14 days, CS-exposure, after citric acid) is 199.7 +/− 37.7*** seconds; in assay [3] (30 mg/kg, 3 days, after citric acid nebulization), 95.3 ± 18.3 s. Further, the Antitussive rate in assay [1] (30 mg/kg, 14 days) was determined as 81.1%; in assay [1] (Embodiment 8 comparison, 30 mg/kg, 14 days) it was 81.1%; in assay [3] (30 mg/kg, 3 days, vs blank control group), 70.5%. Further, the Eos % in assay [2] (BALF) was 3.6 +/− 3.1%. Besides, the Lym % in assay [2] (BALF) is 5.3 +/− 1.1%. Moreover, the Mac % in assay [2] (macrophages in BALF) is recorded as 39.4 +/− 7.1%. For the same compound, the Neu % in assay [2] (neutrophils in BALF) is listed as 51.8 +/− 8.4%.
